According to patent US20220273799A1, “DRUG DELIVERY COMPOSITION, METHOD FORMING THE SAME AND METHOD FOR TREATING INNER EAR DISORDERS” (National Taiwan University of Science and Technology, priority 2021, published 2022):

Assay: DEX concentration in cochlear perilymph after intratympanic injection
Assay type: in vivo, guinea pig
Method: (1) Preparation of guinea pig models: The guinea pig model used in this example is the pigmented guinea pig model. The surgical anesthesia is given by intramuscular injection of ketamine HCl (40 mg per kg guinea pig body weight). The remaining injections are muscle relaxant Rompun® (Xylazine)(10 mg/kg guinea pig body weight), prophylactic antibiotic chloramphenicol sodium succinate (30 mg/kg guinea pig body weight), and local anesthetic Lidocaine HCl (1%, 0.5 mL).
(2) Preparation for the Guinea pig surgery and the experiment: The surgery is carried out by intratympanic injection. The guinea pig is anesthetized and operated under a dissecting surgical microscope after confirmation. A 22G needle is used to puncture the eardrum, and 200 μL of the temperature-sensitive microbubbles drug (DEX) hydrogel of the present disclosure is applied into the middle ear cavity. The experiments are performed in the ultrasound microbubble treatment group (USM), round window soaking group (RWS), and the group treated with DEX only without MBs (DEX only without MBs). The groups are as follows: USM group is injected with the temperature-sensitive microbubbles drug hydrogel at 3W energy for 1 minute. […] The concentrations of DEX are measured in the cochlear perilymph of guinea pigs on day 1 and day 7 after injection.

SMILES: C[C@@H]1C[C@H]2[C@@H]3CCC4=CC(=O)C=C[C@]4(C)[C@@]3(F)[C@@H](O)C[C@]2(C)[C@@]1(O)C(=O)CO [DEX only without MBs, dexamethasone]
- DEX concentration in cochlear perilymph (day 1 after injection, DEX only without MBs group): about 17.38±2.51 μg/mL
- DEX concentration in cochlear perilymph (day 7 after injection, DEX only group): < 3 ng/mL
